In article PMC7203682, “Pharmacological Inhibition of MALT1 Protease Leads to a Progressive IPEX-Like Pathology” (Frontiers in Immunology, 2020):
Read-outs that look alike come from different tables or passages of the source.

Assays:
female Lewis rat = conditions: in vivo, 10 mg/kg
Description: Freund’s incomplete adjuvant (IFA, Difco, Detroit, United States) was mixed with porcine collagen type II (Chondrex, Redmond, United States) using a polytron on ice. The final solution consisted of 200 μg of collagen in 200 μl of IFA. […] of this was injected intradermally (i.d.) into the base of the tail of an isofluorane narcotized female Lewis rat. After 7 days, the isofluorane narcotized animal was boosted i.d. with a fresh batch of the immunization solution in an adjacent site at the base of the tail (100 μg in 100 μl). Paw swelling and body weight were taken three times per week as described below.
There were 10 animals per group for the compound treated groups and n = 9 rats for the vehicle group. […] Hind paws were taken for histological analysis.
There were five animals per group.
All animal studies were performed according to current Swiss animal protection laws, issued by the Cantonal Veterinary Office Basel-Stadt, Switzerland. Body weight of the animals was assessed regularly throughout the study. Mean values of groups were calculated. Scoring of the paw swelling was done on an arbitrary scale of 0–12 per rat, evaluating each hind paw in the front with 0–3 and in the ankle with 0–3, thus obtaining a maximal score of 6 per paw. The paw scores were summed up to obtain a score for each individual animal. The individual sum scores of all the animals were averaged and SEMs were calculated. The scoring system used was: 0 = no detectable sign of inflammation; 1, light swollen region; 2, more obviously swollen region; 3, ankylosis or severely swollen region.
Serum obtained at the end of the study, was diluted 1:10000 and 1: 100000.
Three-μm thick sections were stained with Giemsa and Safranin O (prophylactic setting) or hematoxylin and eosin (therapeutic setting).
Histopathological changes were blindly scored on a scale of 0 (normal) to 3 (severe changes). Following parameters were assessed: inflammatory cell infiltrates, joint damage and proteoglycan loss ([44]).

MALT1 = MALT1 (Canis lupus familiaris, UniProt A0A8I3RR14); experiment: cell-based
Chain of MALT1 (A0A8I3RR14 1-857): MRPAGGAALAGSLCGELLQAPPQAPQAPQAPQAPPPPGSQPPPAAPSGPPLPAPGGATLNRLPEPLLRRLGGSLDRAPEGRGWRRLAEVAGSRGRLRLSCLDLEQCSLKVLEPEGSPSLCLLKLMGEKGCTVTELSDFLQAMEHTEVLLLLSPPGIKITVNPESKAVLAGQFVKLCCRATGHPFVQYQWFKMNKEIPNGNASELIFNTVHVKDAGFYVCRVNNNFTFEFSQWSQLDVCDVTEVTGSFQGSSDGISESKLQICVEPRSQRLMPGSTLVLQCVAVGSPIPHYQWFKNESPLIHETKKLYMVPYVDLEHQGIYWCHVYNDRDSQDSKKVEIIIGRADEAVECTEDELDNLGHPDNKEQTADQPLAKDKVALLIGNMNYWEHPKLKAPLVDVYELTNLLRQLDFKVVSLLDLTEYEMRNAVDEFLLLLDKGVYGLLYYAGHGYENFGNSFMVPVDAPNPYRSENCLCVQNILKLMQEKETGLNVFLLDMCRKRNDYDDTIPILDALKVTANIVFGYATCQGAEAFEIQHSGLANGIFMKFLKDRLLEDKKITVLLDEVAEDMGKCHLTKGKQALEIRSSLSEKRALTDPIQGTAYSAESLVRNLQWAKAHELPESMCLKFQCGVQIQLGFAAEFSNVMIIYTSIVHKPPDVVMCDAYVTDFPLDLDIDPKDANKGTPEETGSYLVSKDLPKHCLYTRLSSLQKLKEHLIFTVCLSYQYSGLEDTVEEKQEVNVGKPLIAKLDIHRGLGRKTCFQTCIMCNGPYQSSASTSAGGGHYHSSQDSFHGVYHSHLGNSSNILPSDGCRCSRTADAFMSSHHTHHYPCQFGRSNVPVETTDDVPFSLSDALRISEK
Description: Human whole blood was obtained from healthy volunteers by venipuncture at the Novartis Basle Health care unit. Blood was pooled into two 50 ml Falcon tubes and filtered using a 100 μm (or 70 μm)-cell strainer. Serial dilutions of compounds (10 mM DMSO stock) were diluted again 1/10 in X-VIVO medium (Lonza Biosciences) and 500 μl of whole blood was mixed with 55 μl of X-VIVO/compound mixes and pre-incubated for 1 h at 37°C with shaking (∼600 rpm). After the pre-incubation time 200 μl of the blood/compound mixes in duplicates were transferred to a new flat bottom plates and PMA (final: 100 ng/ml)/anti-CD28 (final: 300 ng/ml) solution was added. Incubation was performed overnight at 37°C + 5% CO2. Blood plates were spun for 10 min at 470 g and 100 μl of the resulting serum was analyzed for IL-2 levels using MesoScale Discovery kits (MSD), according to the manufacturer’s protocol. […] Similar protocols were implemented for PBMC and blood from rat and dog species.

Foxp3+ Treg cells = experiment: Treg frequency and functional markers in mice treated 12 days; type: in vivo, C57BL/6 mice; conditions: 8 mg/kg BID i.p. or 16 mg/kg QD i.p.
Description: Eight-week-old C57BL/6 mice (Charles River France) were treated from day 0 to day 12, either via p.o. […] (mepazine) dosing. Mepazine acetate (Chembridge, San Diego, CA, United States) was solubilized and dosed in PEG200/water (30/70 v/v). […] Some animals were euthanized at the end of the treatment period for analysis of lymphoid organs, while other animals were kept until day 19 to analyze the recovery of Treg cells after cessation of the treatment. […] Blood samples were collected along the treatment and recovery period to monitor changes in Tregs levels over time. Treg frequencies in blood and spleen as well as the expression of CTLA-4, TNFR2, KLRG1, and CD25 on Tregs was assessed by flow cytometry (see below). All animal studies were performed in accordance with the animal experimentation laws and guidelines laid down by the Swiss Federal and Cantonal Authorities. […] Splenocytes were analyzed at scheduled necropsies. […] CTLA-4 expression was assessed intra- and extracellularly.

[1] = blood compound concentrations in mice; type: in vivo, C57BL/6 mice; conditions: mouse; for concentration at 1 h: C57BL/6, blood, ip, read-out: [Mepazine] blood at 1h (peak); for [Mepazine] blood at 15h (trough): BQL: below quantification limit

Row | Structure (SMILES) | histo-pathological score of hind paw: Inflammation (female Lewis rat) | histo-pathological score of hind paw: Joint damage (female Lewis rat) | histo-pathological score of hind paw: Proteoglycan loss (female Lewis rat) | anti-collagen antibody production (female Lewis rat; po) | joint histology scores (female Lewis rat; po) | paw swelling (female Lewis rat; po) | IC50 (MALT1) [µM] | expression of Treg activation markers (Foxp3+ Treg cells) | frequency of Treg cells (Foxp3+ Treg cells) | concentration at 1 h ([1]; 8 mg/kg BID i.p.) [µM] | concentration at 1 h ([1]; 16 mg/kg QD i.p.) [µM] | [Mepazine] blood at 15h (trough) ([1]; 8 mg/kg BID i.p.) | [Mepazine] blood at 15h (trough) ([1]; 16 mg/kg QD i.p.)
1 | CO[C@@H](C)c1c(NC(=O)Nc2ccnc(C(F)(F)F)c2)cnc2cc(Cl)nn12 [MLT-943] | 0 | 0 | 0 | suppressed | normalized | fully prevented | 0.092 |  |  |  |  |  | 
2 | CN1CCCC(CN2c3ccccc3Sc3ccccc32)C1 (stereo not shown) [mepazine] |  |  |  |  |  |  |  | impacted neither | impacted neither | 0.27 | 0.77 | BQL | BQL
